Values joined by “and” are separate entries in the source; they are usually repeats but may differ in a detail not shown here. Equal entries are not always repeated.
Key:
[1] = tested on: KPC mouse model of PDAC; test: KPC in vivo survival study; conditions: KPC mice; PXS-5505 20 mg kg−1 i.p. daily, gemcitabine 100 mg kg−1 i.p. twice weekly
Excerpt: (§1) The maximal tumor burden allowed by ethics was not exceeded.
as §1

[2] = tested on: TKCC10 human PDX tumors; test: TKCC10 human model, picrosirius red birefringence after three rounds of therapy (Extended Data Fig. 5d); type: in vivo, mouse; conditions: for Quantification of red birefringent (mature) collagen fibres: Extended Data 5D, human PDXs at endpoint after 3 cycles of treatment, individual replicates
Method: Subcutaneous PDX studies were performed by implanting early passage PDX pieces (~4 mm^3) or TKCC10 CCs (1.5 × 10^6 cells per mouse in 100 μl PBS/Matrigel 1:1) into female (PDX) or male (TKCC10) 8-week-old immunocompromised nude Balb/c-Fox1nuAusb mice subcutaneously on the left flank. For the duration of the study, mice were kept in conventional caging with environmental enrichment, access to standard chow, water ad libitum and 12-h light–dark cycle at ambient temperature and humidity. Treatment began when tumors reached 150 mm^3, where each mouse was randomized into a treatment group and administered gemcitabine HCl (100 mg kg^−1 in saline) (Jomar Life Research) or vehicle control (0.9% saline) by i.p. injection twice weekly on day 2 and 4 of the treatment cycle until an ethical end point was reached. These included maximal tumor mass ≥10% of body weight, weight loss ≥20% from maximum body weight or tumor interfering with mobility and affecting access to food and water. Animals with non-tumor-related complications that led to a premature end point were censored. […] Tumor size was monitored every second day by calipers. Tumor volume was calculated using the formula (length × width^2)/2. […]
Extended Data Fig. 5 PXS-5505 in combination with gemcitabine in vivo. a. […] Signal is defined as the enzyme activity in the aorta, while noise is measured in the presence of a high concentration (300 µM) BAPN to abolish any lysyl oxidase family activity. […] FITC-dextran (molecular weight: 10 kDa) signal quantification from KPC tumor end point from each treatment group (vehicle n = 3 biologically independent animals, PXS-5505 n = 5 biologically independent animals, Gem n = 5 biologically independent animals, PXS-5505 + Gem n = 5 biologically independent animals). […] P-values determined by Welchs t-test. […] Quantification of red birefringent (mature) collagen fibers from human PDXs at end point after 3 cycles of treatment, treated as indicated. […] P values determined by Welchs t-test. g. […] Quantification of green birefringent (nascent) collagen fibers from human PDXs at end point, treated as indicated. […]

[3] = tested on: APMA human PDX tumors; test: APMA human PDX model, tumor volumes at end point (Extended Data Fig. 5g); type: in vivo, mouse; conditions: Extended Data 5G; second human PDX model after 3 cycles of treatment; individual animals
Method: Subcutaneous PDX studies were performed by implanting early passage PDX pieces (~4 mm^3) or TKCC10 CCs (1.5 × 10^6 cells per mouse in 100 μl PBS/Matrigel 1:1) into female (PDX) or male (TKCC10) 8-week-old immunocompromised nude Balb/c-Fox1nuAusb mice subcutaneously on the left flank. For the duration of the study, mice were kept in conventional caging with environmental enrichment, access to standard chow, water ad libitum and 12-h light–dark cycle at ambient temperature and humidity. Treatment began when tumors reached 150 mm^3, where each mouse was randomized into a treatment group and administered gemcitabine HCl (100 mg kg^−1 in saline) (Jomar Life Research) or vehicle control (0.9% saline) by i.p. injection twice weekly on day 2 and 4 of the treatment cycle until an ethical end point was reached. These included maximal tumor mass ≥10% of body weight, weight loss ≥20% from maximum body weight or tumor interfering with mobility and affecting access to food and water. Animals with non-tumor-related complications that led to a premature end point were censored. PXS-5505 (20 mg kg^−1 in saline) or vehicle (0.9% saline) was administered daily by i.p. injection. Tumor size was monitored every second day by calipers. Tumor volume was calculated using the formula (length × width^2)/2. At day 39, mice were killed via CO2 and cervical dislocation and tumors were collected and processed. […]

Nc1ccn([C@@H]2O[C@H](CO)[C@@H](O)C2(F)F)c(=O)n1 [Gem, gemcitabine]
Median survival since diagnosis [1]: 125 days
Quantification of red birefringent (mature) collagen fibres [2]: 806 and 284 and 128 and 654 and 1145 and 167 and 291 and 56 and 399 and 263 and 1177 and 403 and 843 and 2660 and 1208 and 745 and 4462 and 5568 and 5319 and 1528 and 2340 and 4185 and 3205 and 2211 and 5904
tumor fibrillar collagen content (picrosirius red birefringence) ([2]; TKCC10 model, three rounds of therapy): increases fibrillar collagen I content
Tumour volumes at endpoint [3]: 145.448 mm3 and 9.626 mm3 and 12.4718 mm3 and 45.315 mm3 and 3.952 mm3 and 50.8335 mm3 and 16.8359 mm3 and 29.7673 mm3 and 51.7185 mm3 and 16.7442 mm3

Cl.Cl.NC/C=C(\F)CS(=O)(=O)c1cccc2cccnc12.O [PXS-5505, (Z)-3-fluoro-4-(quinolin-8-ylsulfonyl)but-2-en-1-amine dihydrochloride monohydrate]
Median survival since diagnosis [1]: 81 days
Quantification of red birefringent (mature) collagen fibres [2]: 965 and 112 and 188 and 2 and 295 and 380 and 3894 and 62 and 792 and 254 and 25 and 1015 and 164 and 72 and 282 and 10 and 83 (2×) and 9 and 15 and 1307 and 917 and 737 and 1467 and 503
Tumour volumes at endpoint [3]: 111.838 mm3 and 144.188 mm3 and 186.048 mm3 and 277.687 mm3 and 285.67 mm3 and 63.9218 mm3 and 265.041 mm3 and 180.58 mm3 and 65.1463 mm3
